Test results from article PMC13087252, “A CXCR4 targeting peptide delivered by silica nanoparticles eliminates migrating cancer stem cells in pancreatic ductal adenocarcinoma” (Scientific Reports, 2026).

Columns and labels:
[1] = system: CD133+ CSCs in Panc354 and MetPO1 cells; assay: Flow cytometry for CD133 after combination treatment; type: cell-based, human; conditions: flow cytometry after 12 days of treatment, fold change
Procedure: For surface protein staining, 1 × 10^6 cells were resuspended in 100µl ice-cold FACS buffer supplemented with 6 µl Gamunex for 15 min at 4 °C. Cells were then incubated with CD133 (PE, Miltenyi Biotec, #130-113-108, RRID: AB_2725937) and CXCR4 (APC, eBioscience, #17-9999-42, RRID: AB_1724113) antibodies or an appropriate isotype control for 30 min at 4 °C. After a PBS wash, cells were resuspended in 500µl of ice-cold FACS buffer with DAPI in FACS tubes for analysis.
(§1) (A) Migration assays towards CXCL12 using Panc354 for EPI-X4 and its derivatives at depicted concentrations. […] (D) Quantifications of percent mesenchymal structures after 15 min and 6 h of CXCL12 treatment in MetPO1 cells. […] Intensity ratios (IR) calculated against control lane using ImageJ. […] Quantification of cell viability and representative pictures for clonogenic assays after treatment with JM#21 (10 μM), gemcitabine (Gem) for indicated concentrations as depicted in experimental design in MetPO1 cell line. […]
We then evaluated the therapeutic potential of JM#21. […] Since we have previously shown the role of CSCs in chemoresistance and the benefit of combination therapy for PDAC in vitro and in vivo[6],[38]–[40], we proceeded to evaluate the role of CSCs in the above-mentioned combination treatment and used flow cytometry to quantify CD133 + CSCs after 12 days of treatment (Fig. 5J, Supp. Figure 3I). […]

[2] = system: Panc354; assay: Transwell migration assay towards CXCL12 (serum-free, B27); type: cell-based, human; conditions: 8 μm pore inserts, CXCL12 10 nM as chemoattractant, 30 min peptide pre-treatment, 24 h, B27 as serum substitute, dose-dependent, largest suppression, n = 3
Procedure: Migration assays were performed using inserts with 8μm pore size PET membranes (Corning, 353,097). Serum (10% FBS) or CXCl12 (10nM) was used in the companion plates as chemoattractant. After 24 h, invaded cells were fixed with 4% PFA and stained with DAPI (Merck, 10,236,276,001). Ten random 10 × fields were chosen and photographed (Keyence), and the pictures were quantified using ImageJ (RRID:SCR_003070).
The CXCL12 – CXCR4 axis regulates a bidirectional tumor-stromal signaling loop that ultimately promotes CSCs and miCSCs and their metastatic and chemoresistant phenotypes. Therefore, targeting CXCR4 may provide a significant improvement in the anticancer therapeutic efficacy. The Endogenous Peptide Inhibitor of CXCR4 (EPI-X4) is a natural antagonist of CXCR4, previously discovered in a human peptide library screen. […]
as §1

Nc1ccn([C@@H]2O[C@H](CO)[C@@H](O)C2(F)F)c(=O)n1 [gemcitabine]
CD133+ population in relapsed cells [1]: significant increase

EPI-X4: Endogenous Peptide Inhibitor of CXCR4, a natural antagonist of CXCR4 from a human peptide library screen (PQNLIKQNCELFEQLG; UniProt P02768 408-423, looked up, fragment)
suppression of CXCL12-induced migration [2]: approx. 50%
